Consider 25 compounds from patent US12570675B2, “Boronic acid compounds” (LG CHEM, LTD., priority 2020, dated 2026).

Assay [1] addresses Proteasome caspase-like activity (S26 protein from RPMI8226 cells) (Homo sapiens (Human), UniProt P28072). Briefly: Proteasome caspase-like activity inhibition (Z-Leu-Leu-Glu-AMC fluorogenic substrate, RPMI8226 cell extract). As to conditions: S26 protein from RPMI8226 cell extract 2 ug/well, substrate 20 uM, 37° C., 90 minutes. In kind it is biochemical. Summed up: (§1)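 Fluorogenic AMC substrates (20 uM final) report chymotrypsin-like (Suc-Leu-Leu-Val-Tyr-AMC) or caspase-like (Z-Leu-Leu-Glu-AMC) cleavage by RPMI8226-derived S26 protein, 2 ug/well, pH 8.0 Tris lysate.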

For assay [2], the target named is Proteasome chymotrypsin-like activity (S26 protein from RPMI8226 cells) (Homo sapiens, UniProt P28074). It is filed as biochemical. As to conditions: S26 protein from RPMI8226 cell extract 2 ug/well, substrate 20 uM, 37° C., 90 minutes; read-out: Proteasome chymotrypsin-like activity inhibition IC50. In short, it runs like this:
as §1

Sequence of Proteasome caspase-like activity (S26 protein from RPMI8226 cells) (P28072 whole entry): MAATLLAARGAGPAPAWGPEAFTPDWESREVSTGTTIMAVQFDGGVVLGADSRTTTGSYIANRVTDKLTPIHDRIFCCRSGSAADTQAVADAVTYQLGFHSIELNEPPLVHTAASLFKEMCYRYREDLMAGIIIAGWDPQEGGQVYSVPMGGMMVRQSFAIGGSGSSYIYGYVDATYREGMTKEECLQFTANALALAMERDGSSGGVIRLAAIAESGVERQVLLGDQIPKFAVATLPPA
Sequence of Proteasome chymotrypsin-like activity (S26 protein from RPMI8226 cells) (P28074 60-263 limits assumed): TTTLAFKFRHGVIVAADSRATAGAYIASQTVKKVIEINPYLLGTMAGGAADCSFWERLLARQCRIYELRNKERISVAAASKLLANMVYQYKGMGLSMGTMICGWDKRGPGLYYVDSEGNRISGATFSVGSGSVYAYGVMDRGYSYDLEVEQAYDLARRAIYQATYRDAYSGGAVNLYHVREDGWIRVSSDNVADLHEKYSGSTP

What is called IC50 is the midpoint of a concentration-inhibition curve. Regarding `Cc1cc(C(=O)NCC2=NOC(Cc3ccccc3)(C(=O)N[C@@H](CC(C)C)B(O)O)C2)n(-c2ccc(F)cc2)n1` (stereo partly drawn) [Example 247, ((1R)-1-(5-benzyl-3-((1-(4-fluorophenyl)-3-methyl-1H-pyrazol-5-carboxamido)methyl)-4,5-dihydroisoxazol-5-carboxamido)-3-methylbutyl)boronic acid], the results for the IC50 in assay [1] and in assay [2] were over 1 µM and under 0.01 µM, respectively.
On the same counts, the results for `CC(C)C[C@H](NC(=O)C1CC(CNC(=O)c2ccccc2)=NO1)B(O)O` (stereo partly drawn) [Example 59, ((1R)-1-(3-(benzamidomethyl)-4,5-dihydroisoxazol-5-carboxamido)-3-methylbutyl)boronic acid] are over 0.5 µM and under 0.1 µM.
As to `COc1cccc(CC2(C(=O)N[C@@H](CC(C)C)B(O)O)CC(CNC(=O)c3nccc4ccccc34)=NO2)c1` (stereo partly drawn) [Example 100, ((1R)-1-(3-((isoquinolin-1-carboxamido)methyl)-5-(3-methoxybenzyl)-4,5-dihydroisoxazol-5-carboxamido)-3-methylbutyl)boronic acid], the IC50 was over 1 µM in assay [1] and under 0.01 µM in assay [2].
Regarding `COC[C@H](NC(=O)c1nccc2ccccc12)C1=NOC(Cc2ccccc2)(C(=O)N[C@@H](CC(C)C)B(O)O)C1` (stereo partly drawn) [Example 153, ((1R)-1-(5-benzyl-3-((R)-1-(isoquinolin-1-carboxamido)-2-methoxyethyl)-4,5-dihydroisoxazol-5-carboxamido)-3-methylbutyl)boronic acid], the figures for the IC50 in assay [1] and in assay [2] were over 0.5 µM and under 0.01 µM, respectively.
In the case of `CC(C)C[C@H](NC(=O)C1(Cc2ccccc2)CC(CNC(=O)c2cccc3c2CCCC3)=NO1)B(O)O` (stereo partly drawn) [Example 115, ((1R)-1-(5-benzyl-3-((5,6,7,8-tetrahydronaphthalen-1-carboxamido)methyl)-4,5-dihydroisoxazol-5-carboxamido)-3-methylbutyl)boronic acid], the IC50 in assay [1] is over 1 µM; in assay [2] it was under 0.01 µM.
For the compound `CC(C)C[C@H](NC(=O)C1(Cc2ccccc2)CC(CNC(=O)c2n[nH]c3ccccc23)=NO1)B(O)O` (stereo partly drawn) [Example 200, ((1R)-1-(3-((1H-indazol-3-carboxamido)methyl)-5-benzyl-4,5-dihydroisoxazol-5-carboxamido)-3-methylbutyl)boronic acid], the IC50 in assay [1] is over 0.1 µM; in assay [2], under 0.01 µM.
The like results for `CC(C)C[C@H](NC(=O)C1(Cc2ccc(F)cc2F)CC(CNC(=O)c2nccc3ccccc23)=NO1)B(O)O` (stereo partly drawn) [Example 178, ((1R)-1-(5-(2,4-difluorobenzyl)-3-((isoquinolin-1-carboxamido)methyl)-4,5-dihydroisoxazol-5-carboxamido)-3-methylbutyl)boronic acid] were, in that order, over 1 µM and under 0.01 µM.
With `Cc1cc(C(=O)NCC2=NOC(Cc3ccccc3)(C(=O)N[C@@H](CC(C)C)B(O)O)C2)n(C2CCCC2)n1` (stereo partly drawn) [Example 196, ((1R)-1-(5-benzyl-3-((1-cyclopentyl-3-methyl-1H-pyrazol-5-carboxamido)methyl)-4,5-dihydroisoxazol-5-carboxamido)-3-methylbutyl)boronic acid], the IC50 in assay [1] was over 1 µM; in assay [2], under 0.01 µM.
As to `CC(C)C[C@H](NC(=O)C1(Cc2ccccc2)CC(CNC(=O)c2cccn3ccnc23)=NO1)B(O)O` (stereo partly drawn) [Example 132, ((1R)-1-(5-benzyl-3-((imidazo[1,2-a]pyridin-8-carboxamido)methyl)-4,5-dihydroisoxazol-5-carboxamido)-3-methylbutyl)boronic acid], the 50% inhibitory concentration (IC50) in assay [1] is over 0.25 µM; in assay [2], under 0.01 µM.
On the same counts, the results for `CC(C)C[C@H](NC(=O)C1(COc2ccccc2)CC(CNC(=O)c2nccc3ccccc23)=NO1)B(O)O` (stereo partly drawn) [Example 126, ((1R)-1-(3-((isoquinolin-1-carboxamido)methyl)-5-(phenoxymethyl)-4,5-dihydroisoxazol-5-carboxamido)-3-methylbutyl)boronic acid] are over 0.5 µM and under 0.01 µM.
For `CC(C)C[C@H](NC(=O)C1(Cc2ccccc2)CC(CNC(=O)c2cccc3c2cnn3C(C)C)=NO1)B(O)O` (stereo partly drawn) [Example 205, ((1R)-1-(5-benzyl-3-((1-isopropyl-1H-indazol-4-carboxamido)methyl)-4,5-dihydroisoxazol-5-carboxamido)-3-methylbutyl)boronic acid], the IC50 in assay [1] is over 0.5 µM; in assay [2], under 0.01 µM.
For `CC(C)C[C@H](NC(=O)C1(Cc2ccccc2)CC(CNC(=O)c2cccc3[nH]ccc23)=NO1)B(O)O` (stereo partly drawn) [Example 127, ((1R)-1-(3-((1H-indol-4-carboxamido)methyl)-5-benzyl-4,5-dihydroisoxazol-5-carboxamido)-3-methylbutyl)boronic acid], the IC50 is over 0.5 µM in assay [1] and under 0.01 µM in assay [2].
On to `O=C(N[C@@H](Cc1ccccc1)B(O)O)C1(Cc2ccccc2)CC(COCc2ccccc2)=NO1` (stereo partly drawn) [Example 257, ((1R)-1-(5-benzyl-3-((benzyloxy)methyl)-4,5-dihydroisoxazol-5-carboxamido)-2-phenylethyl)boronic acid], for which the IC50 in assay [1] was over 2.5 µM; in assay [2], under 0.01 µM.
With `CC(C)C[C@H](NC(=O)C1(Cc2cccc(F)c2)CC(CNC(=O)c2nccc3ccccc23)=NO1)B(O)O` (stereo partly drawn) [Example 187, ((1R)-1-(5-(3-fluorobenzyl)-3-((isoquinolin-1-carboxamido)methyl)-4,5-dihydroisoxazol-5-carboxamido)-3-methylbutyl)boronic acid], the results for the IC50 in assay [1] and in assay [2] were over 0.5 µM and under 0.01 µM, respectively.
`Cc1cccc(C(=O)NCC2=NOC(Cc3ccccc3)(C(=O)N[C@@H](CC(C)C)B(O)O)C2)n1` (stereo partly drawn) [Example 160, ((1R)-1-(5-benzyl-3-((6-methylpicolinamido)methyl)-4,5-dihydroisoxazol-5-carboxamido)-3-methylbutyl)boronic acid]: the IC50 in assay [1] was over 0.5 µM; in assay [2], under 0.01 µM.
Consider `CC(C)C[C@H](NC(=O)C1(Cc2ccccc2)CC(CNC(=O)c2cccc3ncccc23)=NO1)B(O)O` (stereo partly drawn) [Example 116, ((1R)-1-(5-benzyl-3-((quinolin-5-carboxamido)methyl)-4,5-dihydroisoxazol-5-carboxamido)-3-methylbutyl)boronic acid], for which the values for the IC50 in assay [1] and in assay [2] were over 2.5 µM and under 0.01 µM, respectively.
`Cc1cc(C(=O)NCC2=NOC(Cc3ccccc3)(C(=O)N[C@@H](CC(C)C)B(O)O)C2)n(-c2ccccc2)n1` (stereo partly drawn) [Example 246, ((1R)-1-(5-benzyl-3-((3-methyl-1-phenyl-1H-pyrazol-5-carboxamido)methyl)-4,5-dihydroisoxazol-5-carboxamido)-3-methylbutyl)boronic acid]: the IC50 in assay [1] was over 1 µM; in assay [2], under 0.01 µM.
On to `Cc1nc(C)c(C(=O)NCC2=NOC(COc3ccccc3)(C(=O)N[C@@H](CC(C)C)B(O)O)C2)s1` (stereo partly drawn) [Example 141, ((1R)-1-(3-((2,4-dimethylthiazol-5-carboxamido)methyl)-5-(phenoxymethyl)-4,5-dihydroisoxazol-5-carboxamido)-3-methylbutyl)boronic acid], for which the IC50 was over 0.5 µM in assay [1] and under 0.01 µM in assay [2].
Consider `CC(C)C[C@H](NC(=O)C1(Cc2ccccc2)CC([C@H](CC(C)C)NC(=O)c2nccc3ccccc23)=NO1)B(O)O` (stereo partly drawn) [Example 152, ((1R)-1-(5-benzyl-3-((S)-1-(isoquinolin-1-carboxamido)-3-methylbutyl)-4,5-dihydroisoxazol-5-carboxamido)-3-methylbutyl)boronic acid], for which the IC50 in assay [1] was over 1 µM; in assay [2] it was under 0.01 µM.
On to `CC(C)C[C@H](NC(=O)C1(Cc2ccccc2)CC(COCc2ccccc2)=NO1)B(O)O` (some centres unmarked) [Example 256], for which the values for the IC50 in assay [1] and in assay [2] were over 1 µM and under 0.01 µM, respectively.
Regarding `Cc1ccccc1CC1(C(=O)N[C@@H](CC(C)C)B(O)O)CC(CNC(=O)c2nccc3ccccc23)=NO1` (stereo partly drawn) [Example 154, ((1R)-1-(3-((isoquinolin-1-carboxamido)methyl)-5-(2-methylbenzyl)-4,5-dihydroisoxazol-5-carboxamido)-3-methylbutyl)boronic acid], the IC50 in assay [1] was over 0.5 µM; in assay [2], under 0.01 µM.
`CCCC1(C(=O)N[C@@H](CC(C)C)B(O)O)CC(CNC(=O)c2cc(Cl)ccc2Cl)=NO1` (stereo partly drawn) [Example 88, ((1R)-1-(3-((2,5-dichlorobenzamido)methyl)-5-propyl-4,5-dihydroisoxazol-5-carboxamido)-3-methylbutyl)boronic acid]: the IC50 in assay [1] was over 2.5 µM; in assay [2] it was under 0.025 µM.
Consider `CC(C)C[C@H](NC(=O)C1(Cc2ccccc2)CC(CNC(=O)c2cccc3c2ccn3C)=NO1)B(O)O` (stereo partly drawn) [Example 138, ((1R)-1-(5-benzyl-3-((1-methyl-1H-indol-4-carboxamido)methyl)-4,5-dihydroisoxazol-5-carboxamido)-3-methylbutyl)boronic acid], for which the IC50 in assay [1] is over 0.5 µM; in assay [2], under 0.01 µM.
Regarding `CC(C)C[C@H](NC(=O)C1(Cc2ccccc2)CC(CNC(=O)c2cc(-c3ccccc3)nn2C(C)C)=NO1)B(O)O` (stereo partly drawn) [Example 207, ((1R)-1-(5-benzyl-3-((1-isopropyl-3-phenyl-1H-pyrazol-5-carboxamido)methyl)-4,5-dihydroisoxazol-5-carboxamido)-3-methylbutyl)boronic acid], the IC50 in assay [1] was over 0.25 µM; in assay [2] it was under 0.01 µM.
The like results for `Cc1nc2ccccn2c1C(=O)NCC1=NOC(Cc2ccccc2)(C(=O)N[C@@H](CC(C)C)B(O)O)C1` (stereo partly drawn) [Example 133, ((1R)-1-(5-benzyl-3-((2-methylimidazo[1,2-a]pyridin-3-carboxamido)methyl)-4,5-dihydroisoxazol-5-carboxamido)-3-methylbutyl)boronic acid] were, in that order, over 0.5 µM and under 0.01 µM.
